Laboratory results reported in patent US6056944A, “Pharmaceutical compositions for oral use including an NSAID and ceramides” (Synthelabo, priority 1995, dated 2000).

System: inflammation of the adult rat paw
Test: carragheenin-induced inflammation of the adult rat paw (edema volume)
Assay type: in vivo
Conditions: gavage, 1 mg/kg, from 4 hours onwards, persisting up to 5 hours
Description: These tests consist in inducing inflammation of the adult rat paw and monitoring the development of the edema by measuring the volume of the paw.
The experimental conditions were as follows: rats, weighing from 200 to 220 g, were treated by gavage, 18 hours and 1 hour before administering the inflammatory agent, with the NSAI product to be studied, which was or was not combined with ceramides and which was administered in a volume of 0.5 ml. Control groups were given an 0.9% solution of sodium chloride.
The inflammatory reaction is induced by subcutaneously injecting 0.1 ml of a suspension of carragheenin in physiological saline. The volume of the paw is measured, using a mercury plethysmograph, before the inflammation starts, 30 minutes after it has started, and then every hour up to the 6th hour, and then finally 24 hours afterwards. The changes in volume are measured in cm on a graduated scale.
The tests were carried out with ketoprofen lysine, which was administered at 1 and 3 mg/kg and which was or was not combined with 0.5% of ceramides, and with ketoprofen, which was administered at 1 mg/kg and which was or was not combined with 1% of ceramides.

SMILES: CC(C(=O)O)c1cccc(C(=O)c2ccccc2)c1 (stereo not shown) [ketoprofen]
- anti-inflammatory effect as compared with the control: significant as compared with the control
